Source: patent US8686150B2 (Sanofi, priority 2011, dated 2014)

Biological target: T1, human full-length recombinant PKC βII (Homo sapiens, UniProt P05771)
T1 construct: Active human full-length recombinant PKC βII; purchased Invitrogen GmbH, Darmstadt, Germany
Experiment: Determination of PKC βII inhibition (Caliper mobility-shift kinase assay, Fluorescein-RFARKGSLRQKNV peptide substrate)
Format: biochemical
Settings: example compounds at a final concentration of 1.14 μM (±0.15 μM)
In short: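 Full-length PKC βII (30 ng/ml in pre-dilution) with PS/DAG/Ca2+ activators, pH 7.4; fluorescein peptide and ATP at 3 μM and 120 μM before mixing. Reaction ran 60 min at 32 °C, was EDTA-stopped, and was read by mobility shift. % inhibition came from product/(substrate+product) peak heights, tested at 1.14 μM final.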

T1 sequence (P05771 1-673 isoform P05771-2): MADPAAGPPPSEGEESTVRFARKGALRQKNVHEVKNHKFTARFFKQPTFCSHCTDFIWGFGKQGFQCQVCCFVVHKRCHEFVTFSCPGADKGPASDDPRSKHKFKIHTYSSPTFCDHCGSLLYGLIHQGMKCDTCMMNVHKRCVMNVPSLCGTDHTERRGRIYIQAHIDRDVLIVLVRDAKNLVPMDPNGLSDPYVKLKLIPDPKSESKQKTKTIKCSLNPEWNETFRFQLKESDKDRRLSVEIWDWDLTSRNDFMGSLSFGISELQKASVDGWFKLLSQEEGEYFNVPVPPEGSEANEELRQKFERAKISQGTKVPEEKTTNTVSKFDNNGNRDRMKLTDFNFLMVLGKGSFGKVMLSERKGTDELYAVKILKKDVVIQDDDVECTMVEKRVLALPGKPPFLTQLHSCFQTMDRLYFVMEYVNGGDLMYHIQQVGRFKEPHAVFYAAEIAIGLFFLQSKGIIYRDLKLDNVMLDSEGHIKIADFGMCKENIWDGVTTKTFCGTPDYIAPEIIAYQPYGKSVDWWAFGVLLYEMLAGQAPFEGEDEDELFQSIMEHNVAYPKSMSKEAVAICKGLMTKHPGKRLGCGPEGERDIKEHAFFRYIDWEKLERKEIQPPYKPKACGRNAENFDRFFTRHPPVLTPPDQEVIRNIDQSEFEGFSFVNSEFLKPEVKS

Row | Compound | inhibition at 1.14 µM
1 | Cc1n[nH]c2nc(-c3ccc(O)cc3)cc(C(=O)N3CCNCC3c3ccccc3C(F)(F)F)c12 (stereo not drawn) [Example 93, [6-(4-Hydroxy-phenyl)-3-methyl-1H-pyrazolo[3,4-b]pyridin-4-yl]-[2-(2-trifluoromethyl-phenyl)-piperazin-1-yl]-methanone] | 79%
2 | Cc1n[nH]c2nc(-c3ccc(O)cc3)cc(C(=O)N3CCNCC3c3ccc(C(C)C)cc3)c12 (stereo not drawn) [Example 94, [6-(4-Hydroxy-phenyl)-3-methyl-1H-pyrazolo[3,4-b]pyridin-4-yl]-[2-(4-isopropyl-phenyl)-piperazin-1-yl]-methanone] | 90%
3 | Cc1n[nH]c2nc(-c3ccc(O)cc3)cc(C(=O)N3CCNCC3c3ccccc3F)c12 (stereo not drawn) [Example 95, [2-(2-Fluoro-phenyl)-piperazin-1-yl]-[6-(4-hydroxy-phenyl)-3-methyl-1H-pyrazolo[3,4-b]pyridin-4-yl]-methanone] | 99%
4 | Cc1n[nH]c2nc(-c3ccc(O)cc3)cc(C(=O)N3CCNCC3c3ccc(F)cc3F)c12 (stereo not drawn) [Example 96, [2-(2,4-Difluoro-phenyl)-piperazin-1-yl]-[6-(4-hydroxy-phenyl)-3-methyl-1H-pyrazolo[3,4-b]pyridin-4-yl]-methanone] | 98%
5 | Cc1n[nH]c2nc(-c3ccc(O)cc3)cc(C(=O)N3CCNCC3c3ccc(C(F)(F)F)cc3)c12 (stereo not drawn) [Example 97, [6-(4-Hydroxy-phenyl)-3-methyl-1H-pyrazolo[3,4-b]pyridin-4-yl]-[2-(4-trifluoromethyl-phenyl)-piperazin-1-yl]-methanone] | 96%
6 | Cc1n[nH]c2nc(-c3ccc(O)cc3)cc(C(=O)NCC3CNC3)c12 [Example 98, 6-(4-Hydroxy-phenyl)-3-methyl-1H-pyrazolo[3,4-b]pyridine-4-carboxylic acid (azetidin-3-ylmethyl)-amide] | 89%
7 | Cc1n[nH]c2nc(-c3ccc(O)cc3)cc(C(=O)N3CCNCC3c3cccc(C(F)(F)F)c3)c12 (stereo not drawn) [Example 99, [6-(4-Hydroxy-phenyl)-3-methyl-1H-pyrazolo[3,4-b]pyridin-4-yl]-[2-(3-trifluoromethyl-phenyl)-piperazin-1-yl]-methanone] | 97%
8 | Cc1n[nH]c2nc(-c3ccc(O)cc3)cc(C(=O)N3CCNCC3c3c(F)cccc3F)c12 (stereo not drawn) [Example 100, [2-(2,6-Difluoro-phenyl)-piperazin-1-yl]-[6-(4-hydroxy-phenyl)-3-methyl-1H-pyrazolo[3,4-b]pyridin-4-yl]-methanone] | 96%
9 | Cc1n[nH]c2nc(-c3ccc(O)cc3)cc(C(=O)N3CCNCC3c3cccc(Br)c3)c12 (stereo not drawn) [Example 101, [2-(3-Bromo-phenyl)-piperazin-1-yl]-[6-(4-hydroxy-phenyl)-3-methyl-1H-pyrazolo[3,4-b]pyridin-4-yl]-methanone] | 99%
10 | Cc1n[nH]c2nc(-c3ccc(O)cc3)cc(C(=O)N3CCNCC3c3ccccc3Cl)c12 (stereo not drawn) [Example 102, [2-(2-Chloro-phenyl)-piperazin-1-yl]-[6-(4-hydroxy-phenyl)-3-methyl-1H-pyrazolo[3,4-b]pyridin-4-yl]-methanone] | 93%
11 | Cc1n[nH]c2nc(-c3ccc(O)cc3)cc(C(=O)N[C@H]3CC[C@@H](N)CC3)c12 [Example 103, 6-(4-Hydroxy-phenyl)-3-methyl-1H-pyrazolo[3,4-b]pyridine-4-carboxylic acid (cis-4-amino-cyclohexyl)-amide] | 72%
12 | Cc1n[nH]c2nc(-c3ccc(O)cc3)cc(C(=O)NC(CN)c3ccccc3)c12 (stereo not drawn) [Example 104, 6-(4-Hydroxy-phenyl)-3-methyl-1H-pyrazolo[3,4-b]pyridine-4-carboxylic acid (2-amino-1-phenyl-ethyl)-amide] | 94%
13 | Cc1n[nH]c2nc(-c3ccc(O)cc3)cc(C(=O)NC[C@H]3CC[C@@H](N)CC3)c12 [Example 105, 6-(4-Hydroxy-phenyl)-3-methyl-1H-pyrazolo[3,4-b]pyridine-4-carboxylic acid (cis-4-amino-cyclohexylmethyl)-amide] | 53%
14 | Cc1n[nH]c2nc(-c3ccc(O)cc3)cc(C(=O)NC3CCNC3)c12 (stereo not drawn) [Example 106, 6-(4-Hydroxy-phenyl)-3-methyl-1H-pyrazolo[3,4-b]pyridine-4-carboxylic acid pyrrolidin-3-ylamide] | 77%
15 | Cc1n[nH]c2nc(-c3ccc(O)cc3)cc(C(=O)NC(CN)c3ccc(F)cc3)c12 (stereo not drawn) [Example 107, 6-(4-Hydroxy-phenyl)-3-methyl-1H-pyrazolo[3,4-b]pyridine-4-carboxylic acid [2-amino-1-(4-fluoro-phenyl)-ethyl]-amide] | 83%
16 | Cc1n[nH]c2nc(-c3ccc(O)cc3)cc(C(=O)N3CCNCC34CCCC4)c12 [Example 108, (6,9-Diaza-spiro[4.5]dec-6-yl)-[6-(4-hydroxy-phenyl)-3-methyl-1H-pyrazolo[3,4-b]pyridin-4-yl]-methanone] | 96%
17 | CNC1CCN(C(=O)c2cc(-c3ccc(O)cc3)nc3[nH]nc(C)c23)CC1 [Example 109, [6-(4-Hydroxy-phenyl)-3-methyl-1H-pyrazolo[3,4-b]pyridin-4-yl]-(4-methylamino-piperidin-1-yl)-methanone] | 88%
18 | Cc1n[nH]c2nc(-c3ccc(O)cc3)cc(C(=O)N3CCC[C@@H](CN)C3)c12 [Example 110, ((S)-3-Aminomethyl-piperidin-1-yl)-[6-(4-hydroxy-phenyl)-3-methyl-1H-pyrazolo[3,4-b]pyridin-4-yl]-methanone] | 65%
19 | Cc1n[nH]c2nc(-c3ccc(O)cc3)cc(C(=O)N3CC4CCC(C3)N4)c12 [Example 111, 3,8-Diaza-bicyclo[3.2.1]oct-3-yl-[6-(4-hydroxy-phenyl)-3-methyl-1H-pyrazolo[3,4-b]pyridin-4-yl]-methanone] | 97%
20 | Cc1n[nH]c2nc(-c3ccc(O)cc3)cc(C(=O)N3C[C@@H](C)NC[C@@H]3C)c12 [Example 112, ((2S,5R)-2,5-Dimethyl-piperazin-1-yl)-[6-(4-hydroxy-phenyl)-3-methyl-1H-pyrazolo[3,4-b]pyridin-4-yl]-methanone] | 92%

More lines, now with the values ahead:

Row | inhibition at 1.14 µM | Compound
21 | 93% | Cc1n[nH]c2nc(-c3ccc(O)cc3)cc(C(=O)N3CC(C)(C)NCC3C)c12 (stereo not drawn) [Example 113, [6-(4-Hydroxy-phenyl)-3-methyl-1H-pyrazolo[3,4-b]pyridin-4-yl]-(2,5,5-trimethyl-piperazin-1-yl)-methanone]
22 | 87% | Cc1n[nH]c2nc(-c3ccc(O)cc3)cc(C(=O)N3CCNCC3C(F)(F)F)c12 (stereo not drawn) [Example 114, [6-(4-Hydroxy-phenyl)-3-methyl-1H-pyrazolo[3,4-b]pyridin-4-yl]-(2-trifluoromethyl-piperazin-1-yl)-methanone]
23 | 83% | CCC1(NC(=O)c2cc(-c3ccc(O)cc3)nc3[nH]nc(C)c23)CCCNC1 (stereo not drawn) [Example 115, 6-(4-Hydroxy-phenyl)-3-methyl-1H-pyrazolo[3,4-b]pyridine-4-carboxylic acid (3-ethyl-piperidin-3-yl)-amide]
24 | 76% | Cc1n[nH]c2nc(-c3ccc(O)cc3)cc(C(=O)NCC3(N)CCCCCC3)c12 [Example 116, 6-(4-Hydroxy-phenyl)-3-methyl-1H-pyrazolo[3,4-b]pyridine-4-carboxylic acid (1-amino-cycloheptylmethyl)-amide]
25 | 89% | Cc1n[nH]c2nc(-c3ccc(O)cc3)cc(C(=O)N3CCCC(C)(N)C3)c12 (stereo not drawn) [Example 117, (3-Amino-3-methyl-piperidin-1-yl)-[6-(4-hydroxy-phenyl)-3-methyl-1H-pyrazolo[3,4-b]pyridin-4-yl]-methanone]
26 | 98% | CCCC1(NC(=O)c2cc(-c3ccc(O)cc3)nc3[nH]nc(C)c23)CCNCC1 [Example 118, 6-(4-Hydroxy-phenyl)-3-methyl-1H-pyrazolo[3,4-b]pyridine-4-carboxylic acid (4-propyl-piperidin-4-yl)-amide]
27 | 88% | Cc1n[nH]c2nc(-c3ccc(O)cc3)cc(C(=O)N[C@@H]3CCC[C@H]3N)c12 [Example 120, 6-(4-Hydroxy-phenyl)-3-methyl-1H-pyrazolo[3,4-b]pyridine-4-carboxylic acid ((1R,2R)-2-amino-cyclopentyl)-amide]
28 | 99% | Cc1n[nH]c2nc(-c3ccc(O)cc3)cc(C(=O)N3CC(C)(C)NCC3(C)C)c12 [Example 121, [6-(4-Hydroxy-phenyl)-3-methyl-1H-pyrazolo[3,4-b]pyridin-4-yl]-(2,2,5,5-tetramethyl-piperazin-1-yl)-methanone]
29 | 89% | Cc1n[nH]c2nc(-c3ccc(O)cc3)cc(C(=O)N3CCC(C)(N)C3)c12 (stereo not drawn) [Example 122, (3-Amino-3-methyl-pyrrolidin-1-yl)-[6-(4-hydroxy-phenyl)-3-methyl-1H-pyrazolo[3,4-b]pyridin-4-yl]-methanone]
30 | 78% | CCCC1(NC(=O)c2cc(-c3ccc(O)cc3)nc3[nH]nc(C)c23)CCCNC1 (stereo not drawn) [Example 124, 6-(4-Hydroxy-phenyl)-3-methyl-1H-pyrazolo[3,4-b]pyridine-4-carboxylic acid (3-propyl-piperidin-3-yl)-amide]
31 | 52% | CCCC1(NC(=O)c2cc(-c3ccc(O)cc3)nc3[nH]nc(C)c23)CCNC1 (stereo not drawn) [Example 125, 6-(4-Hydroxy-phenyl)-3-methyl-1H-pyrazolo[3,4-b]pyridine-4-carboxylic acid (3-propyl-pyrrolidin-3-yl)-amide]
32 | 90% | CCC(CCN)NC(=O)c1cc(-c2ccc(O)cc2)nc2[nH]nc(C)c12 (stereo not drawn) [Example 127, 6-(4-Hydroxy-phenyl)-3-methyl-1H-pyrazolo[3,4-b]pyridine-4-carboxylic acid (3-amino-1-ethyl-propyl)-amide]
33 | 91% | Cc1n[nH]c2nc(-c3ccc(O)cc3)cc(C(=O)NC(C)(C)CCN)c12 [Example 128, 6-(4-Hydroxy-phenyl)-3-methyl-1H-pyrazolo[3,4-b]pyridine-4-carboxylic acid (3-amino-1,1-dimethyl-propyl)-amide]
